According to US20240316038A1, “APOL1 INHIBITORS AND METHODS OF USE” (Maze Therapeutics, Inc., priority 2021, published 2024):

Legend:
APOL1 G2 [1] = target: T1, APOL1 G2 (Homo sapiens, UniProt O14791, DEL388-389); test: Rescue of HEK293 cell death caused by overexpression of APOL1 (CellTiter-Glo luminescence), HEK293/T-REx APOL1 G2/clone #2; type: cell-based; conditions: reversal of cell death caused by overexpression of APOL1; geometric mean of at least 2 assay runs, † = single assay run (technical duplicate)
T1 construct: expressed in transfected cells; host or cells: HEK293 T-REx clonal lines: HEK T-REx/GCaMP6f/APOL1 G2 K6.3 in A1, HEK293/T-REx APOL1 G2/clone #2 in A2
T1 sequence (O14791 with tags, fused parts or gaps DEL388-389): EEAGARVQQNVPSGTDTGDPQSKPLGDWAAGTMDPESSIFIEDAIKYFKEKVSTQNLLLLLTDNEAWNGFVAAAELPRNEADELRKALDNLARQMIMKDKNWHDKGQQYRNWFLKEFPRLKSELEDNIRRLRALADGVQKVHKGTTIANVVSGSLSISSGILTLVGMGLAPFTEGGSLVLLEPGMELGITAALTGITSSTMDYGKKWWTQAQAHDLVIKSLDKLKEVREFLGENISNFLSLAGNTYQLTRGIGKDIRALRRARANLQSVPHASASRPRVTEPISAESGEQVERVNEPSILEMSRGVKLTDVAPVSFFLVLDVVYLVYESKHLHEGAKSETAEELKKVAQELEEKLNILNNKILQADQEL
Protocol: A HEK293 clonal cell line overexpressing APOL1 G2 (HEK293/T-REx APOL1 G2/clone #2) was maintained in 1×DMEM-GlutaMax (Gibco, 10569-010) media with 10% tetracycline-free FBS (Takara Bio USA, 631101), 5 μg/mL Blasticidin (Gibco, A1113903), and 100 μg/mL Zeocin (Invitrogen, R25001) in T75 flasks. In preparation for the assay, this media was aspirated and 2 mL of prewarmed TrypLE Express (Gibco, 12605-010) was added to a flask to detach cells. The flask was then incubated (humidified, 37° C. with 5% CO2) for 3-5 minutes. Afterwards, 8 mL of prewarmed cell assay media (lx DMEM-GlutaMax media with 10% tetracycline-free FBS) was added to the trypsinized cells. The suspension was gently mixed, and cells were counted using a Countess Cell Counting Chamber (Invitrogen). The suspension was diluted using cell assay media to generate a working stock solution (166,667 cells/mL). Using a MultiDrop Combi (Thermo Electron Corp), 30 μL (final cell density=5,000 cells/well) of the working stock solution was dispensed into each well of white 384-well assay ready plates (Nunc™, 164610) containing 6 ng/mL doxycycline, to induce APOL1 expression, and compound. All compounds were plated in a duplicate 8-point dilution series that consisted of 3-fold stepwise dilutions (0.5% DMSO final). Assay plates were incubated (humidified, 37° C. with 5% CO2) for 17 hours. After the incubation, the plates were equilibrated at room temperature for 1 hour. Next, 15 μl of CellTiter-Glo® reagent (Promega, G7570) was added to each well using a MultiDrop Combi. Plates were placed on an orbital shaker (500 rpm) for 5 minutes to induce cell lysis and then incubated at room temperature for 10 minutes. Luminescence was measured on an Envision plate reader. Collaborative Drug Discovery software was utilized for graphing data. Plots were generated using a four parameter logistic curve fit.
Table B2 below provides the results from this experiment. Unless otherwise specified, EC50 values are reported as the geometric mean of at least 2 assay runs on separate days. Each run represents the average of a technical replicate, where each compound was assayed twice in the same plate. A superscript t symbol indicates a value from the average of a technical replicate from a single assay run, where each compound was assayed twice in the same plate. Compounds in Table B2 are referred to by the corresponding Compound Number in Table 1, which is also referred to in the synthetic examples. When one or more of the numbered compounds are identified by stereochemistry (for example, (R)- or (S)—), the specific stereoisomer for which data is provided in Table B2 may be identified by the elution order of such compound as described in the synthetic examples. To illustrate, Compound 2 is the first-eluting enantiomer of step 4 of Example 1 and Compound 3 is the second-eluting enantiomer of step 4 of Example 1. Further, by way of illustration, Compound 27 is the first-eluting enantiomeric mixture in step 4 of Example 7 and Compound 28 is the second-eluting enantiomeric mixture in step 4 of Example 7. Then, Compound 27 is separated into Compound 29 (the first-eluting enantiomer) and Compound 30 (the second-eluting enantiomer) in Example 8, and Compound 28 is separated into Compound 31 (the first-eluting enantiomer) and Compound 32 (the second-eluting enantiomer) in Example 8. Absolute stereochemistry of such compounds may be identified by methods known in the art.
Rescue EC50 values reported in Table B2 below represent the half-maximal effective concentration for reversal of cell death caused by overexpression of APOL1.

APOL1 G2 [2] = target: T1, APOL1 G2; test: APOL1 calcium transport inhibition assay (GCaMP6f calcium influx, FLIPR) in HEK T-REx/GCaMP6f/APOL1 G2 K6.3 cells; type: cell-based; conditions: inhibition of APOL1-mediated calcium influx; geometric mean of at least 2 assay runs, † = single assay run (technical duplicate)
Protocol: A HEK293 clonal cell line was generated to stably express GCaMP6f, a genetically encoded calcium indicator, and inducibly express APOL1 G2 (HEK T-REx/GCaMP6f/APOL1 G2 K6.3). Cells were maintained in the following standard complete medium: DMEM with 4.5 g/L glucose and sodium pyruvate (BioWhittaker, Lonza, BE12-614F), supplemented with 10% FBS Performance Plus (Gibco, 16000044), 1% penicillin-streptomycin (BioWhittaker, DE17-602E), 2 mM ultraglutamine-1 (BioWhittaker cat. BE 17-605/U1), 50 μg/mL Zeocin (InvivoGen, ant-zn), 2.5 μg/mL Blasticidin (InvivoGen, ant-bl-5), and 25 μg/mL Hygromycin (InvivoGen, ant-hg). Standard propagation conditions consisted of plating 9×10^6, 4×10^6, 2×10^6 cells in a T225 flasks to be processed after 2, 3, or 4 days, respectively.
A source plate was generated containing 20 serially diluted compounds in DMSO (duplicate 8-point dose response). Next, 0.8 μL of compounds were transferred from the source plate to a destination plate prefilled with 79.2 μL of Ca^2+ free Tyrode's buffer (130 mM NaCl, 5 mM KCl, 1 mM MgCl2, 5 mM NaHCO3, 20 mM HEPES at pH 7.4). The destination plate was placed on a plate shaker (5 seconds at 2000 rpm) to mix. […] All transfer and mixing steps were conducted with an CyBi®-Well dispenser.
Cells were split by gently washing with DPBS (Euroclone, ECB4004L), followed by a 5-minute incubation (humidified, 37° C. with 5% CO2) with trypsin-EDTA solution (Euroclone, ECB3052D). Detached cells were diluted with standard complete medium without selective agents, counted, and plated in a 384 MTP microplate (GR4332CPL, Twin Helix) (10,000 cells/well in 25 μl/well) using a MATRIX WellMate dispenser. Plates were placed into a humidified incubator (37° C. with 5% CO2) overnight. The following day, 20 μL of doxycycline (Sigma, D9891) at 20 ng/mL in standard complete medium was added to cells with a CyBi @Drop dispenser to induce APOL1 G2 expression. After a 6-hour incubation (humidified, 37° C. with 5% CO2), cells were washed 3 times with Ca^2+ free Tyrode's Buffer (130 mM NaCl, 5 mM KCl, 1 mM MgCl2, 5 mM NaHCO3, 20 mM HEPES at pH 7.4) using a BIOTEK Microplate washer, such that 10 μL of buffer remained in each well after the final wash. Assay plates were then stored at room temperature for 10 minutes. Next, 10 μL of diluted compounds were transferred to the assay plate from the 2× compound plate using a CyBi®-Well dispenser. Compound incubation was then carried out at room temperature for 10 minutes. The assay plate was transferred to the […] and 20 μL of 10 mM Ca^2+ (final concentration=5 mM) Tyrode's buffer was injected.
Table B1 below summarizes the data from this experiment. Unless otherwise specified, AC50 and values are reported as the geometric mean of at least 2 assay runs on separate days. Each run represents the average of a technical replicate, where each compound was assayed twice in the same plate. A superscript † symbol indicates a value from the average of a technical replicate from a single assay run, where each compound was assayed twice in the same plate.
The AC50 values in Table B1 below reflect the compound's ability to prevent calcium influx by inhibiting APOL1. […] Compounds in Table B1 are referred to by the corresponding Compound Number in Table 1, which is also referred to in the synthetic examples. When one or more of the numbered compounds are identified by stereochemistry (for example, (R)- or (S)—), the specific stereoisomer for which data is provided in Table B1 may be identified by the elution order of such compound as described in the synthetic examples. To illustrate, Compound 2 is the first-eluting enantiomer of step 4 of Example 1 and Compound 3 is the second-eluting enantiomer of step 4 of Example 1. Further, by way of illustration, Compound 27 is the first-eluting enantiomeric mixture in step 4 of Example 7 and Compound 28 is the second-eluting enantiomeric mixture in step 4 of Example 7. […]

`CS(=O)(=O)c1ccc(OC[C@@H]2CN(CCc3cccc(Cl)c3)CCN2)cc1` [Compound 13, (S)-1-(3-chlorophenethyl)-3-((4-(methylsulfonyl)phenoxy)methyl)piperazine] was tested, and the EC50 (APOL1 G2 [1]) was 0.445 µM and the AC50 (APOL1 G2 [2]) was 0.143 µM.
In the case of `CC1CC(COc2ccc(S(C)(=O)=O)cc2)CN1CCc1cccc(Cl)c1` (single isomer, unassigned) [Compound 53, rac-trans or cis-1-(3-chlorophenethyl)-2-methyl-4-((4-(methylsulfonyl)phenoxy)methyl)pyrrolidine], the EC50 (APOL1 G2 [1]) is reported as 1.12 µM and the AC50 (APOL1 G2 [2]) is reported as 0.856 µM.
`C[C@@H]1CN(CC(O)c2cccc(C#N)c2)C[C@H]1COc1ccc(S(C)(=O)=O)cc1` (some centres unmarked) [Compound 126] was tested, and the EC50 (APOL1 G2 [1]) was 0.56 µM and the AC50 (APOL1 G2 [2]) was 0.704 µM.
`Cc1cc(C#N)cc(CCN2C[C@@H](COc3ccc(S(C)(=O)=O)cc3)[C@H](C)C2)c1` [Compound 198, 3-{2-[(3S,4S)-3-[(4-methanesulfonylphenoxy)methyl]-4-methylpyrrolidin-1-yl]ethyl}-5-methylbenzonitrile] was tested, and the EC50 (APOL1 G2 [1]) was 0.0715 µM and the AC50 (APOL1 G2 [2]) was 0.197 µM.
For `CC(Cc1cccc(Cl)c1)NC[C@H](O)COc1ccc(N(C)S(C)(=O)=O)cc1` (single isomer, unassigned) [Compound 96, N-(4-((S)-3-(((R) or (S)-1-(3-chlorophenyl)propan-2-yl)amino)-2-hydroxypropoxy)phe-nyl)-N-methylmethanesulfon-amide], the EC50 (APOL1 G2 [1]) was > 30 µM and the AC50 (APOL1 G2 [2]) was 3.77 µM.
`CC1CNC(COc2ccc(S(C)(=O)=O)cc2)CN1CCc1cccc(Cl)c1` (single isomer, unassigned) [Compound 213, rac-trans or cis-(2R,5S)-1-[2-(3-chlorophenyl)ethyl]-5-[(4-methanesulfonylphenoxy)methyl]-2-methylpiperazine] was tested, and the EC50 (APOL1 G2 [1]) was 0.964 µM and the AC50 (APOL1 G2 [2]) was 0.877 µM.
In the case of `CS(=O)(=O)c1ccc(OC[C@@H](O)CNCCc2cccc(Cl)c2)cc1` [Compound 93, (S)-1-((3-chlorophenethyl)a-mino)-3-(4-(methylsulfonyl)phe-noxy)propan-2-ol], the EC50 (APOL1 G2 [1]) is reported as > 30 µM and the AC50 (APOL1 G2 [2]) is reported as 6.54 µM.
Work on `C[C@@H]1CN(CCc2cccc(C#N)c2)C[C@H]1COc1ccc(S(=O)(=O)C2CNC2)cc1` [Compound 172, 3-{2-[(3S,4S)-3-{[4-(azetidine-3-sulfonyl)phenoxy]methyl}-4-methylpyrrolidin-1-yl]ethyl}benzonitrile] yielded an EC50 (APOL1 G2 [1]) of 0.203 µM and an AC50 (APOL1 G2 [2]) of 0.104 µM.
Work on `C[C@H]1CC[C@H](COc2ccc(S(C)(=O)=O)cc2)CN1CCc1cccc(Cl)c1` [Compound 134, (25,5S)-1-[2-(3-chlorophenyl)ethyl]-5-[(4-methanesulfonylphenoxy)methyl]-2-methylpiperidine] yielded an EC50 (APOL1 G2 [1]) of 0.908 µM and an AC50 (APOL1 G2 [2]) of 0.277 µM.
`CC1CC(COc2ccc(S(C)(=O)=O)cc2)CN1CCc1cccc(C#N)c1` (single isomer, unassigned) [Compound 138, 3-{2-[(2R,4S or 2S,4R or 2R,4R or 2S,4S)-4-[(4-methanesulfon-ylphenoxy)meth-yl]-2-methyl-pyrrolidin-1-yl]-ethyl}benzo-nitrile] was tested, and the EC50 (APOL1 G2 [1]) was 1.97 µM and the AC50 (APOL1 G2 [2]) was 2.5 µM.
`CC1(O)CN(CCc2cccc(Cl)c2)CC1COc1ccc(S(C)(=O)=O)cc1` (racemic) [Compound 208, rac-trans-1-[2-(3-chlorophenyl)ethyl]-4-[(4-methanesulfonylphenoxy)methyl]-3-methylpyrrolidin-3-ol] was tested, and the EC50 (APOL1 G2 [1]) was 3.57 µM and the AC50 (APOL1 G2 [2]) was < 0.42 µM.
`C[C@@]1(O)CN(CCc2cccc(Cl)c2)C[C@H]1COc1ccc(S(C)(=O)=O)cc1` (single isomer, unassigned) [Compound 207, (3S,4S or 3R,4R)-1-[2-(3-chlorophenyl)ethyl]-4-[(4-methanesulfonylphenoxy)methyl]-3-methylpyrrolidin-3-ol] was tested, and the EC50 (APOL1 G2 [1]) was 0.933 µM and the AC50 (APOL1 G2 [2]) was 0.34 µM.
`CS(=O)(=O)c1ccc(OC[C@H]2CCN(CCc3cccc(Cl)c3)C2)cc1` [Compound 51, (S)-1-(3-chlorophenethyl)-3-((4-(methylsulfonyl)phenoxy)methyl)pyrrolidine] was tested, and the EC50 (APOL1 G2 [1]) was 1.49 µM and the AC50 (APOL1 G2 [2]) was 0.727 µM.
